Like-named read-outs stand apart in the source and are kept apart here.
Test system: SARS-CoV-2-specific CD4+ T cells (OX40+CD137+) in PBMC
Format: cell-based, human
[1] = CD4+ T cell epitopes identified by AIM assay, share of donors responding
[2] = CD4+ T cell epitopes identified by AIM assay, sum of response per responding donor
[3] = CD4+ T cell epitopes identified by AIM assay, total response
[4] = CD4+ T cell epitopes identified by AIM assay, percent of tested donors responding
[5] = CD4+ T cell epitopes identified by AIM assay, total response summed over donors

Sequence	Frequency of response (%)	Magnitude by # of responding donors	Sum of response	Frequency of response (%) [1] [%]	Magnitude by # of responding donors [2]	Sum of response [3]	Frequency of response (%) [4] [%]	Sum of response [5]
PCPIHFYSKWYIRVG	55	491	2948					
LYENQKLIANQFNSA				7	195	195		
YDANYFLCWHTNCYD				7	209	209		
VYYPDKVFRSSVLHS				15	198	395		
IAGHHLGRCDIKDLP				25	522	1565		
RPLLESELVIGAVIL				8	183	183		
FIYNKIVDEPEEHVQ				14	243	486		
NIDGYFKIYSKHTPI				45	295	1475		
IWVATEGALNTPKDH				7	200	200		
FVSLAIDAYPLTKHP				14	115	230		
ARDLICAQKFNGLTV				8	232	232		
RYLALYNKYKYFSGA				15	708	1415		
GAVILRGHLRIAGHH				8	512	512		
FLHFLPRVFSAVGNI				9	491	491		
YLTFYLTNDVSFLAH				17	358	715		
IDAYPLTKHPNQEYA				14	115	229		
DAALALLLLDRLNQL [SEQ ID NO 246]				21	488	1463		
ELHLSWEVGKPRPPL				8	103	103		
KEITVATSRTLSYYK				54	516	3615		
PQNQRNAPRITFGGP				6	222	222		
PSGTWLTYTGAIKLD [SEQ ID NO 248]	42	517	2583					
LPQGFSALEPLVDLP				18	418	836		
EELKKLLEQWNLVIG				13	223	446		
LVYFLQSINFVRIIM [SEQ ID NO 251]					218		7	218
SELVIGAVILRGHLR	33	141	563					
TRSMWSFNPETNILL				17	205	410		

Sequence	Frequency of response (%)	Magnitude by # of responding donors	Sum of response	Frequency of response (%) [1] [%]	Magnitude by # of responding donors [2]	Sum of response [3]	Frequency of response (%) [4] [%]	Sum of response [5]
IAATRGATVVIGTSK				6	117	117		
SFLGRYMSALNHTKK				9	219	219		
NLVRDLPQGFSALEP				27	607	1822		
LGASQRVAGDSGFAA				15	491	981		
LKPFERDISTEIYQA				17	594	1188		
FPRGQGVPINTNSSP				8	397	397		
FKIYSKHTPINLVRD				18	484	967		
RCSFYEDFLEYHDVR	36	174	696					
LGVYYHKNNKSWMES				9	259	259		
ELDKYFKNHTSPDVD					361		7	361
RFASVYAWNRKRISN				27	241	722		
LPDPSKPSKRSFIED				8	109	109		
SLQSCTQHQPYVVDD				9	1222	1222		
VIRGDEVRQIAPGQT				9	180	180		
TFGGPSDSTGSNQNG				6	291	291		
CEFQFCNDPFLGVYY					359		27	1077
FVSGNCDVVIGIVNN				7	180	180		
RVAGDSGFAAYSRYR				15	139	278		
LPNDDTLRVEAFEYY				9	162	162		
VRIIMRLWLCWKCRS				14	131	261		
FLCWHTNCYDYCIPY				7	209	209		
WDLTAFGLVAEWFLA				8	134	134		
STECSNLLLQYGSFC				8	314	314		
NLLLQYGSFCTQLNR					1140		31	4560
GVPINTNSSPDDQIG				8	108	108		
DFLEYHDVRVVLDFI				18	341	681		

Sequence	Frequency of response (%)	Magnitude by # of responding donors	Sum of response	Frequency of response (%) [1] [%]	Magnitude by # of responding donors [2]	Sum of response [3]	Frequency of response (%) [4] [%]	Sum of response [5]
LQPELDSFKEELDKY				7	173	173		
TNCYDYCIPYNSVTS				7	402	402		
FNICQAVTANVNALL				6	220	220		
TDTGVEHVTFFIYNK				7	118	118		
LLEQWNLVIGFLFLT				13	122	243		
AIKLDDKDPNFKDQV				8	585	585		
QKKQQTVTLLPAADL				7	712	712		
SGHNLAKHCLHVVGP				8	148	148		
LEAPFLYLYALVYFL				7	272	272		
QMAYRFNGIGVTQNV				7	160	160		
CLVGLMWLSYFIASF	33	295	1181					
RLWLCWKCRSKNPLL				7	290	290		
PNFSKLINIIIWFLL				8	3802	3802		
PVYSFLPGVYSVIYL				8	650	650		
SEMVMCGGSLYVKPG				6	217	217		
RAMPNMLRIMASLVL				7	144	144		
MWLSYFIASFRLFAR				25	343	1030		
NVPLHGTILTRPLLE				8	263	263		
EIYQAGSTPCNGVEG				8	1121	1121		
KLLKSIAATRGATVV [SEQ ID NO 258]					230		6	230
VNLTTRTQLPPAYTN				8	170	170		
YIRVGARKSAPLIEL [SEQ ID NO 256]					366		18	731
KKRWQLALSKGVHFV [SEQ ID NO 250]					144		18	287
TPSFKKGAKLLHKPI				8	103	103		

Source: patent US20230293630A1, “Coronavirus T Cell Epitopes and Uses Thereof” (priority 2020, published 2023)
